In patent publication US11332459B2 (TEIJIN PHARMA LIMITED, priority 2017, dated 2022):
Where a name gives a salt, the structure may show the parent alone.

Biological target: T1, human TRPC6 (Homo sapiens, UniProt Q9Y210)
T1 construct: expressed in transfected cells
T1 sequence (Q9Y210 1-931): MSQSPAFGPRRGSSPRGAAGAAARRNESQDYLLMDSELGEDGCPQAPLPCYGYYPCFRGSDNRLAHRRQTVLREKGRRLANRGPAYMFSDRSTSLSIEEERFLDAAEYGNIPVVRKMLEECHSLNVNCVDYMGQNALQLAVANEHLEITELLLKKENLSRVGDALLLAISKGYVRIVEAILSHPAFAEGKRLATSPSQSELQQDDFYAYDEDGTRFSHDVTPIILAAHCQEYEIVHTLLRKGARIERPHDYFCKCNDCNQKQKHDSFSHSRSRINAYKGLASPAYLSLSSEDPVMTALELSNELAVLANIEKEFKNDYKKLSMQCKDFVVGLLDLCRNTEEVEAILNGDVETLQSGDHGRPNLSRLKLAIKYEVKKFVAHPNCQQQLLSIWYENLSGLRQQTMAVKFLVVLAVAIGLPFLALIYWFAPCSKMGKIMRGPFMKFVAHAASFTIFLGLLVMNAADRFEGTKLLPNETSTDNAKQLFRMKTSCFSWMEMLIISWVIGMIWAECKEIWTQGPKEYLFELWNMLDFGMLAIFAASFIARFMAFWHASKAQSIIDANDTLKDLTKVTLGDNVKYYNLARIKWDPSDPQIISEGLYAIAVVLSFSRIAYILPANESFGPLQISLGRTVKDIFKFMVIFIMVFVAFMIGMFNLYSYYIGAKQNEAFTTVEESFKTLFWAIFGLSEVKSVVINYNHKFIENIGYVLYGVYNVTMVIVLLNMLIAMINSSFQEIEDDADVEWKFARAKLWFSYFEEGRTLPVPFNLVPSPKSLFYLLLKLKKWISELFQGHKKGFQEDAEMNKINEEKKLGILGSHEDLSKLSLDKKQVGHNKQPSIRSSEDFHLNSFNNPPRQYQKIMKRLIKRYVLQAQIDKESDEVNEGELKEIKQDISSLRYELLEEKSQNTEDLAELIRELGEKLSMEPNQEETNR
Assay: TRPC6 calcium flux assay (FLIPR, OAG-stimulated calcium influx)
Type: cell-based
Settings: HEK293 cells stably transfected with human TRPC6, read-out: hTRPC6 Potency
How it was run: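 IC50 derived by plotting background-corrected peak fluorescence (180 s window, normalized to OAG-triggered signal vs buffer) against dose. Stable human TRPC6 HEK293 line was dye-loaded, exposed to compound 25 min, then challenged with 50 uM final OAG in 2 mM Ca2+ HEPES buffer pH 7.2, 0.5% DMSO.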

SMILES	IC50
C[C@H](c1ccc(C#N)cn1)n1c(N2CC[C@H]3OCCN[C@@H]3C2)nc2c(F)cc(F)cc21 [Example 267, 6-((1R)-1-(4,6-difluoro-2-((4aR,8aR)-hexahydro-2H-pyrido[4,3-b][1,4]oxazin-6(5H)-yl)-1H-benzimidazol-1-yl)ethyl)-3-pyridinecarbonitrile]	> 50000 nM
C[C@H](c1ccc(C#N)cn1)n1c(N2CC[C@@H]3OCCN[C@H]3C2)nc2c(F)cc(F)cc21 [Example 268, 6-((1R)-1-(4,6-difluoro-2-((4aS,8aS)-hexahydro-2H-pyrido[4,3-b][1,4]oxazin-6(5H)-yl)-1H-benzimidazol-1-yl)ethyl)-3-pyridinecarbonitrile]	> 50000 nM
C[C@@H](c1ccc(C#N)cn1)n1c(N2CC[C@@H]3OCCN[C@H]3C2)nc2c(F)cc(F)cc21 [Example 269, 6-((1S)-1-(4,6-difluoro-2-((4aS,8aS)-hexahydro-2H-pyrido[4,3-b][1,4]oxazin-6(5H)-yl)-1H-benzimidazol-1-yl)ethyl)-3-pyridinecarbonitrile]	2.04 nM
C[C@@H](c1ccc(C#N)cn1)n1c(N2CC[C@H]3OCCN[C@@H]3C2)nc2c(F)cc(F)cc21 [Example 270, 6-((1S)-1-(4,6-difluoro-2-((4aR,8aR)-hexahydro-2H-pyrido[4,3-b][1,4]oxazin-6(5H)-yl)-1H-benzimidazol-1-yl)ethyl)-3-pyridinecarbonitrile]	51.5 nM
C[C@H](c1ccc(C#N)cn1)n1c(N2CC[C@H]3OCCN[C@@H]3C2)nc2cc(F)cc(F)c21 [Example 271, 6-((1R)-1-(5,7-difluoro-2-((4aR,8aR)-hexahydro-2H-pyrido[4,3-b][1,4]oxazin-6(5H)-yl)-1H-benzimidazol-1-yl)ethyl)-3-pyridinecarbonitrile]	158 nM
C[C@H](c1ccc(C#N)cn1)n1c(N2CC[C@@H]3OCCN[C@H]3C2)nc2cc(F)cc(F)c21 [Example 272, 6-((1R)-1-(5,7-difluoro-2-((4aS,8aS)-hexahydro-2H-pyrido[4,3-b][1,4]oxazin-6(5H)-yl)-1H-benzimidazol-1-yl)ethyl)-3-pyridinecarbonitrile]	2.81 nM
C[C@@H](c1ccc(C#N)cn1)n1c(N2CC[C@@H]3OCCN[C@H]3C2)nc2cc(F)cc(F)c21 [Example 273, 6-((1S)-1-(5,7-difluoro-2-((4aS,8aS)-hexahydro-2H-pyrido[4,3-b][1,4]oxazin-6(5H)-yl)-1H-benzimidazol-1-yl)ethyl)-3-pyridinecarbonitrile]	13.7 nM
CNC(=O)Cn1c(N2CC[C@@H](F)[C@H](N)C2)nc2cc(F)c(F)cc21 [Example 275, 2-(2-((3R,4R)-3-amino-4-fluoro-1-piperidinyl)-5,6-difluoro-1H-benzimidazol-1-yl)-N-methylacetamide]	0.32 nM
N[C@@H]1CN(c2nc3cc(F)c(F)cc3n2CC(=O)N2CCOCC2)CC[C@H]1F [Example 276, 2-(2-((3R,4R)-3-amino-4-fluoro-1-piperidinyl)-5,6-difluoro-1H-benzimidazol-1-yl)-1-(4-morpholinyl)ethanone]	42.2 nM
CN(C)C(=O)Cn1c(N2CC[C@@H](F)[C@H](N)C2)nc2cc(F)c(F)cc21 [Example 278, 2-(2-((3R,4R)-3-amino-4-fluoro-1-piperidinyl)-5,6-difluoro-1H-benzimidazol-1-yl)-N,N-dimethylacetamide]	737 nM
C[C@H](C(=O)N(C)C)n1c(N2CC[C@@H](F)[C@H](N)C2)nc2cc(F)c(F)cc21 [Example 279]	7.16 nM
C[C@@H](C(=O)N(C)C)n1c(N2CC[C@@H](F)[C@H](N)C2)nc2cc(F)c(F)cc21 [Example 280, (2S)-2-(2-((3R,4R)-3-amino-4-fluoro-1-piperidinyl)-5,6-difluoro-1H-benzimidazol-1-yl)-N,N-dimethylpropanamide]	1.47 nM
CCNC(=O)Cn1c(N2CC[C@@H](F)[C@H](N)C2)nc2cc(F)c(F)cc21 [Example 282, 2-(2-((3R,4R)-3-amino-4-fluoro-1-piperidinyl)-5,6-difluoro-1H-benzimidazol-1-yl)-N-ethylacetamide]	150 nM

The next lines start with the values.

IC50	SMILES
0.328 nM	C[C@@H](c1ccc(C#N)cn1)n1c(N2CC[C@H]3OCCN[C@@H]3C2)nc2cc(F)cc(F)c21 [Example 274, 6-((1S)-1-(5,7-difluoro-2-((4aR,8aR)-hexahydro-2H-pyrido[4,3-b][1,4]oxazin-6(5H)-yl)-1H-benzimidazol-1-yl)ethyl)-3-pyridinecarbonitrile]
0.49 nM	N[C@@H]1CN(c2nc3cc(F)c(F)cc3n2CC(=O)N2CCCC2)CC[C@H]1F [Example 277, 2-(2-((3R,4R)-3-amino-4-fluoro-1-piperidinyl)-5,6-difluoro-1H-benzimidazol-1-yl)-1-(1-pyrrolidinyl)ethanone]
26.9 nM	N[C@@H]1CN(c2nc3cc(F)c(F)cc3n2CC(=O)N2CCCCC2)CC[C@H]1F [Example 281, 2-(2-((3R,4R)-3-amino-4-fluoro-1-piperidinyl)-5,6-difluoro-1H-benzimidazol-1-yl)-1-(1-piperidinyl)ethanone]
23.8 nM	CN[C@@H]1CN(c2nc3ccc(C#N)cc3n2Cc2ncc(Cl)cn2)CC[C@H]1F [Example 283, 1-((5-chloro-2-pyrimidinyl)methyl)-2-((3R,4R)-4-fluoro-3-(methylamino)-1-piperidinyl)-1H-benzimidazole-6-carbonitrile]
223 nM	CN[C@@H]1CN(c2nc3cc(C#N)ccc3n2Cc2ncc(Cl)cn2)CC[C@H]1F [Example 284, 1-((5-chloro-2-pyrimidinyl)methyl)-2-((3R,4R)-4-fluoro-3-(methylamino)-1-piperidinyl)-1H-benzimidazole-5-carbonitrile]
185 nM	N[C@@H]1CN(c2nc3ccc(Cl)cc3n2CC(=O)N2CCC2)CC[C@H]1F [Example 285, 2-(2-((3R,4R)-3-amino-4-fluoro-1-piperidinyl)-6-chloro-1H-benzimidazol-1-yl)-1-(1-azetidinyl)ethanone]
562 nM	N[C@@H]1CN(c2nc3cc(Cl)ccc3n2CC(=O)N2CCC2)CC[C@H]1F [Example 286, 2-(2-((3R,4R)-3-amino-4-fluoro-1-piperidinyl)-5-chloro-1H-benzimidazol-1-yl)-1-(1-azetidinyl)ethanone]
10.7 nM	N#Cc1ccc2nc(N3CC[C@H](F)[C@H](N)C3)n(CC(=O)N3CCC3)c2c1 [Example 287, 2-((3R,4S)-3-amino-4-fluoro-1-piperidinyl)-1-(2-(1-azetidinyl)-2-oxoethyl)-1H-benzimidazole-6-carbonitrile]
> 3750 nM	N#Cc1ccc2c(c1)nc(N1CC[C@H](F)[C@H](N)C1)n2CC(=O)N1CCC1 [Example 288, 2-((3R,4S)-3-amino-4-fluoro-1-piperidinyl)-1-(2-(1-azetidinyl)-2-oxoethyl)-1H-benzimidazole-5-carbonitrile]
73.5 nM	N[C@@H]1CN(c2nc3ccc(F)cc3n2Cc2ncc(Cl)cn2)CC[C@H]1F [Example 289, (3R,4R)-1-(1-((5-chloropyrimidin-2-yl)methyl)-6-fluoro-1H-benzo[d]imidazol-2-yl)-4-fluoropiperidin-3-amine]
1970 nM	N[C@@H]1CN(c2nc3cc(F)ccc3n2Cc2ncc(Cl)cn2)CC[C@H]1F [Example 290, (3R,4R)-1-(1-((5-chloropyrimidin-2-yl)methyl)-5-fluoro-1H-benzo[d]imidazol-2-yl)-4-fluoropiperidin-3-amine]
> 3750 nM	N#Cc1ccc(Cn2c(N3CCC[C@@H](N)C3)nc3ccccc32)nc1 [Example 291, (R)-6-((2-(3-aminopiperidin-1-yl)-1H-benzo[d]imidazol-1-yl)methyl)nicotinonitrile]
62.5 nM	N#Cc1ccc(Cn2c(N3CCC[C@@H](N)C3)nc3ccccc32)cn1 [Example 292, (R)-5-((2-(3-aminopiperidin-1-yl)-1H-benzo[d]imidazol-1-yl)methyl)picolinonitrile 2,2,2-trifluoroacetate]
2920 nM	N[C@@H]1CCCN(c2nc3ccccc3n2Cc2ccc3ccncc3c2)C1 [Example 293, (R)-1-(1-(isoquinolin-7-ylmethyl)-1H-benzo[d]imidazol-2-yl)piperidin-3-amine]
5.07 nM	C[C@H](c1ccc(C#N)cn1)n1c(N2CCC[C@H](N)C2)nc2ccccc21 [Example 295, 6-((R)-1-(2-((S)-3-aminopiperidin-1-yl)-1H-benzo[d]imidazol-1-yl)ethyl)nicotinonitrile hydrochloride]
7.65 nM	C[C@@H](c1ccc(C#N)cn1)n1c(N2CCC[C@H](N)C2)nc2ccccc21 [Example 296, 6-((S)-1-(2-((S)-3-aminopiperidin-1-yl)-1H-benzo[d]imidazol-1-yl)ethyl)nicotinonitrile hydrochloride]
